IC50 and inhibition data for one molecule are collected here from ChEMBL document CHEMBL5352492, “Application of deep generative model for design of Pyrrolo[2,3-d] pyrimidine derivatives as new selective TANK binding kinase 1 (TBK1) inhibitors” (Eur J Med Chem, 2023).

Test [1] addresses T1, Serine/threonine-protein kinase TBK1 (Homo sapiens, UniProt Q9UHD2).
T1 sequence (Q9UHD2 whole entry): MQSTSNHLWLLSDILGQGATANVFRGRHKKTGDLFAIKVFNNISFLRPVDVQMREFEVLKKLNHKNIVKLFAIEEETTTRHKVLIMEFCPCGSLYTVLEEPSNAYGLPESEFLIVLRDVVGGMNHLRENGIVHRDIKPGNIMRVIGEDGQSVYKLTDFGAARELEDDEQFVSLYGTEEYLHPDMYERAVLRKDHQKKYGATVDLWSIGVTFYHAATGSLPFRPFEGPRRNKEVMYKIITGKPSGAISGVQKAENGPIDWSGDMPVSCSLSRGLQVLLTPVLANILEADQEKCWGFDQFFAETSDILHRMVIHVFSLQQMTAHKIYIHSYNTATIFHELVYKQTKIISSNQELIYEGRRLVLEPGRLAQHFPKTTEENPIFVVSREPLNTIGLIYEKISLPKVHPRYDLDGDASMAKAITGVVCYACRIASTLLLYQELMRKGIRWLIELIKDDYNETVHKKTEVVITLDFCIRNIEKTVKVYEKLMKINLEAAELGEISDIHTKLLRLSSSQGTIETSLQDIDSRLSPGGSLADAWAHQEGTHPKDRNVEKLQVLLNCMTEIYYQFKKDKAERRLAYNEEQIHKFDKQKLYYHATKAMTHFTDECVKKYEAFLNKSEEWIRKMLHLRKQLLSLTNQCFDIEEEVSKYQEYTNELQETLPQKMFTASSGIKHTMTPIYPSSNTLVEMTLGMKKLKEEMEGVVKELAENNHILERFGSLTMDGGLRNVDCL
Nature of the test: Inhibition of TBK1 (unknown origin) incubated for 1 hr in presence of ATP by FRET based Z'-Lyte assay.

Test [2] deals with T2, Serine/threonine-protein kinase TBK1 (Homo sapiens) (UniProt Q9UHD2).
T2 sequence (whole entry): T1 sequence (Q9UHD2 whole entry)
Nature of the test: Inhibition of TBK1 (unknown origin) incubated at 1000 nM for 1 hr in presence of ATP by FRET based Z'-Lyte assay relative to control.

For test [3], the target named is T2, Serine/threonine-protein kinase TBK1 (Homo sapiens). The test can be described thus: Inhibition of TBK1 (unknown origin) incubated at 10 nM for 1 hr in presence of ATP by FRET based Z'-Lyte assay relative to control.
For a further test, the system named is A549. The test can be described thus: Antiproliferative activity against human A549 cells measured after 72 hrs by SRB staining method. The test is classed as functional, cell-based. To be noted: A549, 72 h.
Test [4] concerns the target Proto-oncogene tyrosine-protein kinase receptor Ret (Homo sapiens) (UniProt P07949). The test can be described thus: Inhibition of RET (unknown origin) at 100 to 1000 nM relative to control. The note with it: dose 100-1000 nM.
The target in test [5] is Fibroblast growth factor receptor 3 (Homo sapiens) (UniProt P22607). The test can be described thus: Inhibition of FGFR3 (unknown origin) at 100 to 1000 nM relative to control. The note with it: dose 100-1000 nM.
Test [6] deals with Fibroblast growth factor receptor 2 (Homo sapiens) (UniProt P21802). Nature of the test: Inhibition of FGFR2 (unknown origin) at 100 to 1000 nM relative to control. The note with it: dose 100-1000 nM.
Chain of Fibroblast growth factor receptor 2 (Homo sapiens) (P21802 22-821 limits assumed): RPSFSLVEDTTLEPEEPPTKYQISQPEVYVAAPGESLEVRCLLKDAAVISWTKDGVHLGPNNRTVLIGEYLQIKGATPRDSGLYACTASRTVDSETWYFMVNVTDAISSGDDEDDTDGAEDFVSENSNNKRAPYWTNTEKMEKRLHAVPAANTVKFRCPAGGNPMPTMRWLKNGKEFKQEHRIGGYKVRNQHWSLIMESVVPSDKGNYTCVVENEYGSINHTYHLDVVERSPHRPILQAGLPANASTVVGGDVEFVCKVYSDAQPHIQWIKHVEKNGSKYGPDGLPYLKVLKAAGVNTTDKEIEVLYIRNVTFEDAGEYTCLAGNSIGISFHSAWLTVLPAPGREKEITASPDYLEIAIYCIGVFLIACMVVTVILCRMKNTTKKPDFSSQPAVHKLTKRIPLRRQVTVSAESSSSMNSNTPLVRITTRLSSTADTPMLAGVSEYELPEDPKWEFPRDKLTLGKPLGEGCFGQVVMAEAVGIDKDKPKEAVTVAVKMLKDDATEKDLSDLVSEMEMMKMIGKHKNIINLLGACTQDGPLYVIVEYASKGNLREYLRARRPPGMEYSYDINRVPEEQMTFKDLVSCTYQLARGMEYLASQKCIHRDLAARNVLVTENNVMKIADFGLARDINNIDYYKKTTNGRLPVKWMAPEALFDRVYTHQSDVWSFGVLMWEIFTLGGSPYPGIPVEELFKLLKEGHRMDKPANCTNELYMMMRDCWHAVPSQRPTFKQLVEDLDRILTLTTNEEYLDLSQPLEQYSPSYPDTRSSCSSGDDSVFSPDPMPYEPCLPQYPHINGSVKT
Test [7] concerns the target Fibroblast growth factor receptor 4 (Homo sapiens) (UniProt P22455). Nature of the test: Inhibition of FGFR4 (unknown origin) at 100 to 1000 nM relative to control. To be noted: dose 100-1000 nM.
Test [8] deals with Tyrosine-protein kinase ABL1 (Homo sapiens) (UniProt P00519). Nature of the test: Inhibition of Abl (unknown origin) at 100 to 1000 nM relative to control. To be noted: dose 100-1000 nM.
Chain of Tyrosine-protein kinase ABL1 (Homo sapiens) (P00519 whole entry): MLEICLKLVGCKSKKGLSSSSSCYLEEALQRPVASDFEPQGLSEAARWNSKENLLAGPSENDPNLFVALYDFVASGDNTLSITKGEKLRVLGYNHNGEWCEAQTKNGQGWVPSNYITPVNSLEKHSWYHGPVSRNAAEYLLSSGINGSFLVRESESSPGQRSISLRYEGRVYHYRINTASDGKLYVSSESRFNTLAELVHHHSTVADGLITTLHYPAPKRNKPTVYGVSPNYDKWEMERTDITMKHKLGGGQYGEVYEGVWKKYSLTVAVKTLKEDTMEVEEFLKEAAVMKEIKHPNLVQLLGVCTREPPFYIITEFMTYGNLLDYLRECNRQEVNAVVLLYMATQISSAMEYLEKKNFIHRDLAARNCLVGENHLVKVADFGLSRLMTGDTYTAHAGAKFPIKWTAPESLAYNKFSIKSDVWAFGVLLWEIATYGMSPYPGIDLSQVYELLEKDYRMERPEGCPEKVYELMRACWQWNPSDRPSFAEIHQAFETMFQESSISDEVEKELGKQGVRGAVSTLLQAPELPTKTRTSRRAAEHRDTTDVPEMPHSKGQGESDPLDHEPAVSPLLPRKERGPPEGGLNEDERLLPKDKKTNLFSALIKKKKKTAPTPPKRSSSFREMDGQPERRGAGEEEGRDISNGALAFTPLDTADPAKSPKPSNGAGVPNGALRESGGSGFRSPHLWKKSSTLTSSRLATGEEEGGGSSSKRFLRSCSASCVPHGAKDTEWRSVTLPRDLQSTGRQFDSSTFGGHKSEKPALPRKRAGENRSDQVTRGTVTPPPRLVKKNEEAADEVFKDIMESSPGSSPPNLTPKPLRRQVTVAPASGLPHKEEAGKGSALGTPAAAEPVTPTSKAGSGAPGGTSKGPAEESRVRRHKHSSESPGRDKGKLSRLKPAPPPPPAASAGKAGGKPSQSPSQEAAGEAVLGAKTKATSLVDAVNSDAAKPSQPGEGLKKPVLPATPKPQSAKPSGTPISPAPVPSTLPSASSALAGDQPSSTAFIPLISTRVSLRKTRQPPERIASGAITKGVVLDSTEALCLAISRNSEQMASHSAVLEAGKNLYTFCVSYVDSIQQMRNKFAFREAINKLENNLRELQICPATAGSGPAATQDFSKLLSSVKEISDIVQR
The target in test [9] is Epidermal growth factor receptor (Homo sapiens) (UniProt P00533). Nature of the test: Inhibition of EGFR (unknown origin) at 100 to 1000 nM relative to control. To be noted: dose 100-1000 nM.
Chain of Epidermal growth factor receptor (Homo sapiens) (P00533 whole entry): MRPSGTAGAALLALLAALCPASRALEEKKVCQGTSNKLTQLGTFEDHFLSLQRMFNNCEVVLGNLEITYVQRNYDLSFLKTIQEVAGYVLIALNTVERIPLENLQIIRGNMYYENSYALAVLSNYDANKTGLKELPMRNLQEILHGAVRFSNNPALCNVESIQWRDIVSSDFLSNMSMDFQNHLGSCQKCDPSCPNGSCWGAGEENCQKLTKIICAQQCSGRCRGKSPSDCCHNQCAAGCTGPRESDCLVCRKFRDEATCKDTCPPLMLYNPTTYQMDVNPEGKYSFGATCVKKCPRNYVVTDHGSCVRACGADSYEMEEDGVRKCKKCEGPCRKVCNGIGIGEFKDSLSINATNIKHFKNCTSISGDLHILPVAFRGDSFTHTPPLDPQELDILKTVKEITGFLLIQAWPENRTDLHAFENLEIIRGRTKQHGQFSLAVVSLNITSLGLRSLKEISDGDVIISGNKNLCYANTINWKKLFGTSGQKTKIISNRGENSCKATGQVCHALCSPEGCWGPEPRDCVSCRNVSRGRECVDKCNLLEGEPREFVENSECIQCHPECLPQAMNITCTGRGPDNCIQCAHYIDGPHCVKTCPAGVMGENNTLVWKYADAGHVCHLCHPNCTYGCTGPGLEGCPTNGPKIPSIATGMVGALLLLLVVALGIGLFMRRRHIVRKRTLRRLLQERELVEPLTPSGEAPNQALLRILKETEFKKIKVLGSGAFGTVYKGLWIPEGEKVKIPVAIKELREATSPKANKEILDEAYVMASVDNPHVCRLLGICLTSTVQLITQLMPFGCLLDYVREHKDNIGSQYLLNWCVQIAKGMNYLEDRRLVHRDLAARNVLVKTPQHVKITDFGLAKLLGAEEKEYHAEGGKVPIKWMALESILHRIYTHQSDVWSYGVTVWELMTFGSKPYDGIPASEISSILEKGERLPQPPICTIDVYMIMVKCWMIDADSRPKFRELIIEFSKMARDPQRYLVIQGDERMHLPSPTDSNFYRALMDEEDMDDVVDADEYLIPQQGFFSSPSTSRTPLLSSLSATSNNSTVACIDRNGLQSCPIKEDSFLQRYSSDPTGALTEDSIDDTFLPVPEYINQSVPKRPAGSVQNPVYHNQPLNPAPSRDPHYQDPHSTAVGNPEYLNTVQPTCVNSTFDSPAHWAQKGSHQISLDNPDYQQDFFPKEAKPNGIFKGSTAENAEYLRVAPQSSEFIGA

In general, IC50 refers to the concentration needed to halve the response being measured. Usually inhibition stands for the relative decrease from the control value, in per cent.

Chain of Proto-oncogene tyrosine-protein kinase receptor Ret (Homo sapiens) (P07949 whole entry): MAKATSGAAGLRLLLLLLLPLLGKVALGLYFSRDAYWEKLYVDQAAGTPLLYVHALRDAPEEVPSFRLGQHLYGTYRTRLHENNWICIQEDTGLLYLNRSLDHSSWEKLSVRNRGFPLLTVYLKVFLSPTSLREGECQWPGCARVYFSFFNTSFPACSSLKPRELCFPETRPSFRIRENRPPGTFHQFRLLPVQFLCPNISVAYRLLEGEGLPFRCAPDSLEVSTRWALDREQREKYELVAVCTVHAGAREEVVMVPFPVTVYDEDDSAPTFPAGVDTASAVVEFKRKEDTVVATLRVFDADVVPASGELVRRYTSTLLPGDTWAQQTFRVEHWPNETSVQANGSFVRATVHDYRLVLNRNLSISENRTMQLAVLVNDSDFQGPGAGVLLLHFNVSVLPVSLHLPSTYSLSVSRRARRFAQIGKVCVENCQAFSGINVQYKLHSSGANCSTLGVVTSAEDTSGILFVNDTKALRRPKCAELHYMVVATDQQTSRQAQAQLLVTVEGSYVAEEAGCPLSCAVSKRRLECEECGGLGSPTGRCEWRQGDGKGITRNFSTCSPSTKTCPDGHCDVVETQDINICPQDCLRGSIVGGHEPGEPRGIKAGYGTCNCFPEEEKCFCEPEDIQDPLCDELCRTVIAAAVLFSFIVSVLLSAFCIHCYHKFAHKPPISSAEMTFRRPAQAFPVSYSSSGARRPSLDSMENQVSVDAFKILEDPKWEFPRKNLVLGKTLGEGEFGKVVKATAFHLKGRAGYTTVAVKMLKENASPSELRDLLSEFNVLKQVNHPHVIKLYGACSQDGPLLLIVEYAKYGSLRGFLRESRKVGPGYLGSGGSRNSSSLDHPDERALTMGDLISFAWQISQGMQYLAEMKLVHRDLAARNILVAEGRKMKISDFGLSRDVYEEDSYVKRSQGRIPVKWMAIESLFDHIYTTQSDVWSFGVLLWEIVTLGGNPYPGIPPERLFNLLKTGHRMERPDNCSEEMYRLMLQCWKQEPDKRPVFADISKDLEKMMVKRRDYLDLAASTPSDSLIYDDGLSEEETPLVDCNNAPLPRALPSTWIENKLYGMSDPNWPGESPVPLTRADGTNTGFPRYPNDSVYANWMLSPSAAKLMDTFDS
Chain of Fibroblast growth factor receptor 4 (Homo sapiens) (P22455 22-802 limits assumed): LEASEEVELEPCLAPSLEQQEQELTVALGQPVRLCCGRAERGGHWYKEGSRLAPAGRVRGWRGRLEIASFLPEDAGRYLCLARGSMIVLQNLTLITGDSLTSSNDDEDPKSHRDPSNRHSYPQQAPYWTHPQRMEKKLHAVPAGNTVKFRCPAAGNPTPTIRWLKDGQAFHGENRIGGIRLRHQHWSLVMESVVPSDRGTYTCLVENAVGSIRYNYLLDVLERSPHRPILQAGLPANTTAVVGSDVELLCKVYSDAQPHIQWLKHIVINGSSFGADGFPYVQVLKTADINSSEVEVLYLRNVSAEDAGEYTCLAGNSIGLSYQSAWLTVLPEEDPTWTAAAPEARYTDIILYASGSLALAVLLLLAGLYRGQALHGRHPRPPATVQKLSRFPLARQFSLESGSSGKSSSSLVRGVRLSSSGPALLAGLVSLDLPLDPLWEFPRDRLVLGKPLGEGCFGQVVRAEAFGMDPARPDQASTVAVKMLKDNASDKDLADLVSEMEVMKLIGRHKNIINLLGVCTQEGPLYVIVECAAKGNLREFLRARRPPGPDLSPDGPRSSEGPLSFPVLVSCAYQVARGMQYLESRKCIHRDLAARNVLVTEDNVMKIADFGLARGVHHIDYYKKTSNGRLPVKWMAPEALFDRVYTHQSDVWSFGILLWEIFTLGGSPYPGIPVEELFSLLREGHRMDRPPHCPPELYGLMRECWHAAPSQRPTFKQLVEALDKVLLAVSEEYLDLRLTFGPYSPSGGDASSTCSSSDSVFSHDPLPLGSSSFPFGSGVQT

Consider `CC(=O)N1CCN(Cc2cccc(Nc3ncc4ccn(CCCNC(=O)C5CCC5)c4n3)c2)CC1`, for which the IC50 in [1] was determined as 0.0224 µM; with A549 it was 17.6 µM. For the same molecule, the inhibition in test [2] was 89%; in [3], 56.7%; in test [4], under 35%; in [5] it was under 35%; in test [6], under 35%; in test [7], under 35%. Besides, the inhibition in test [8] and in test [9] was under 35% in each case.
